Reference: patent US11911396B2, “Use of compound in preparation of drug for treating cerebral small vessel disease” (GUANGZHOU CELLPROTEK PHARMACEUTICAL CO., LTD, priority 2017, dated 2024)

Columns and labels:
[1] = tested on: free hemoglobin; assay: Immunofluorescence of extravascular free hemoglobin in prefrontal cortex brain tissue, acute hypobaric hypoxia model; format: in vivo, cynomolgus monkeys (Macaca fascicularis); conditions: 7500 meters for 48 hours, compared with acute hypobaric hypoxia group, FIG. 1
Text: FIG. 1. Acute hypobaric hypoxia caused an increase in extravascular distribution of free hemoglobin in the brain tissue of the prefrontal cortex of cynomolgus monkeys (Macaca fascicularis). […] B. MFI (Mean Fluorescence Intensity) was quantified using Nikon NIS-Element software. The statistics of the relative fluorescence intensity of free hemoglobin distributed extravascularly in the brain tissue of cynomolgus monkeys was shown, and one-way ANOVA analysis and Dunnutt's t test were used to perform statistical tests, **, p<0.01, ns, no statistical difference, n=4. NN: Normobaric Normoxia group; HH: Hypobaric Hypoxia group; HH+Triol: Hypobaric Hypoxia with Triol administration group; HH+PROG: Hypobaric Hypoxia with control drug administration group. PROG represents the control drug progesterone.
The thickness of paraffin sections was 5 μm. For fresh paraffin sections, the sections were dried at 37° C. overnight and then dried at 55° C. for 30 minutes. The sections were quickly placed in xylene for dewaxing. […] NIS-Elements Analysis software was used to analyze the fluorescence intensity of confocal images, which was then normalized with the fluorescence intensity per unit area according to the built-in scale. […]

[2] = tested on: IL-6; assay: Western blot of IL-6 in prefrontal cortex brain tissue, acute hypobaric hypoxia model; format: in vivo, cynomolgus monkeys; conditions: FIGS. 3A and 3B
Text: (§1) FIG. 3. […] A. Protein expression of inflammatory factors IL-6, IL-1β and TNF-α in the brain tissue of the prefrontal cortex of cynomolgus monkeys; B. Statistics of protein relative gray scan values. NN: Normobaric Normoxia group (N=3); HH: Hypobaric Hypoxia group (N=3); HH+Triol: Hypobaric Hypoxia with Triol administration group (N=3); HH+PROG: Hypobaric Hypoxia with control drug administration group (N=3). The gray value was obtained by scanning with Image Lab software, and the relative value was obtained after normalizing with α-Tubulin. One-way ANOVA analysis and Dunnutt's t test were used to perform statistical tests, and in the latter each group was compared with the HH group, *, p<0.05; **, p<0.01.
(§2) 1) Preparation of protein samples (see the instructions of M-PER protein lysate): After the cells had been processed for the specified time, the medium was aspirated and then washed with 4° C. pre-chilled PBS (0.01M pH7.2˜7.3) for 3 times. […] 2) BCA protein quantification (see the instructions of BCA protein quantification kit): corresponding components were added to a 96-well detection plate by the ratio of quantification reagent A solution:B solution:ddH2O:protein=100:2:7.5:5, and albumin standards diluted in gradient concentration were added to draw a standard curve. […] After the reaction, the absorbance of each well at a wavelength of 562 nm was detected using a microplate reader. […]

[3] = tested on: TNF-α; assay: Western blot of TNF-α in prefrontal cortex brain tissue, acute hypobaric hypoxia model; format: in vivo, cynomolgus monkeys; conditions: FIGS. 3A and 3B
Text: as §1, §2

C[C@@]12CCCC1C1C[C@@H](O)[C@@]3(O)C[C@@H](O)CC[C@]3(C)C1CC2 (stereo partly drawn) [Triol, 5α-androst-3β,5,6β-triol]
significantly reduced: distribution of extravascular free hemoglobin [1] | expression level of IL-6 [2] | expression level of TNF-α [3]
